# Test results reported in patent US11639531B2, “Composition, kit, and method for diagnosis and treatment of taxane anticancer agent-resistant cancer” (SUNGKWANG MEDICAL FOUNDATION, priority 2018, dated 2023).
# How the values were obtained:
# Assay type in all cases: cell-based, human
# [1] = system: SKpac cells (SKpac-12, SKpac-16, and SKpac-17); assay: TUNEL assay for apoptosis (miR-150); details: 48 hours
# Experimental: TUNEL assays were performed after pre miR-150 transfection in SKpac-12 and SKpac-17. After 48 hours, apoptotic cells were analyzed using the In Situ Cell Death Detection kit (Roche, Mannheim, Germany). 2×10^7 cells were fixed with 75% ethanol for 2 hours at −20° C. The cells were washed twice with PBS and incubated with 0.1% Triton X-100 and 0.1% sodium citrate for 2 minutes on ice. After washing twice with PBS, the cells were incubated with a TUNEL-labelling mixture for 1 hour at 37° C. in the dark. The samples were washed twice with PBS and analyzed by fluorescence activated cell sorting (FACS) (Becton Dickinson, Franklin Lakes, N.J., USA).
# In addition, to determine the effect of miR-150 on apoptosis, the SKpac cells (SKpac-12, SKpac-16, and SKpac-17) were transfected with pre miR-150, and then a TUNEL assay was performed on the cells. […] Collectively, the pre miR-150 transfection by itself or increased a sensitivity of tumor cells with respect to PTX and thus decreased tumor cell proliferation and induced apoptosis in PTX-resistant ovarian cancer cells.
# SKpac cells = assay: WST (CCK-8) cell viability assay (miR-136); details: PTX-alone treatment
# Experimental: In order to investigate the role of miR-136 in the anticancer agent-sensitivity and proliferation activity of PTX-resistant SKpac cells, cell survival rate, cell proliferation, and apoptosis analyses were performed on the SKpac cells transfected by miR-136 mimics. […] In addition, to confirm whether overexpression of miR-136 increases cell toxicity induced by PTX, degrees of apoptosis were evaluated using a TUNEL analysis. […] In collection of these experiment results, it may be known that the overexpression of miR-136, when used alone or in a combination with PTX, decreases cell viability and cell proliferation of anticancer agent-resistant ovarian cancer cells and increases apoptosis.
# HUVECs = assay: Angiogenesis (tube formation) assay (miR-150)
# Experimental: Matrigel (BD Biosciences, California, USA) was placed into flat-bottom, 96-well plate and polymerized for 1 hour at 37° C. HUVECs incubated in M199 containing 1% FBS were harvested after trypsin treatment, resuspended in M199, plated onto the layer of Matrigel at a density of 1×10^4 cells/well, and the supernatant of SKpac-17 cells transfected by pre miR150 was added. After 24 hours, 48 hours, and 72 hours, tube formation was observed.
# Cell migration and angiogenesis are important factors that influence tumor progression and metastasis. In this Example, a wound healing assay and a tube formation assay were performed to examine the effect of pre miR-150 on cell migration and the effect on angiogenesis, respectively.
# SKpac-17 cells = assay: Spheroid-forming assay (miR-150); details: PTX alone-treatment
# Experimental: Spheroid-forming assays were performed to verify the effect of miR-150 on cancer stem cell activation. SKpac-17 cells were transfected with pre miR-150 or pre miR-negative. Cells were plated in Ultra-Low-Attachment Surface 6-well culture plates (Corning, Action, MA, USA) in serum-free DEME/F12 medium (Gibco/Life Technologies, Grand Island, N.Y., USA) supplemented with 20 ng/ml epidermal growth factor (Gibco, Carlsbad, Calif., USA), 10 ng/ml basic fibroblast growth factor (Sigma-Aldrich, St. Louis, Mo., USA), 0.4% bovine serum albumin (Sigma-Aldrich, St. Louis, Mo., USA), and 5 μg/mL insulin (Sigma-Aldrich, St. Louis, Mo., USA) at a density of 1000 cells/cm^2. Spheroid formation (of 50 to 100 cells per spheroid) was assessed 7 days after seeding.
# In order to verify the effect of miR-150 transfection on cancer stem cells (CSCs) activation, a spheroid-forming assay was performed on paclitaxel-resistant SKpac cells in this Example, and alteration of mRNA of the stemness genes was detected using real-time RT-PCR.
smiles,measurement,setting,value
"CC(=O)O[C@H]1C(=O)[C@@]2(C)[C@H]([C@H](OC(=O)c3ccccc3)[C@]3(O)C[C@H](OC(=O)[C@H](O)[C@@H](NC(=O)c4ccccc4)c4ccccc4)C(C)=C1C3(C)C)[C@]1(OC(C)=O)CO[C@@H]1C[C@@H]2O [PTX, paclitaxel]",apoptosis of the comparison treatments,[1],3.5%
same,influence on the cell viability,SKpac cells,no influence
same,reduction effect (migration / tube formation),HUVECs,not observed
same,spheroid formation,SKpac-17 cells,no changes
